The test system of test [1] is HCC827. Description: Induction of cell cycle arrest in human HCC827 cells assessed as accumulation in G2 phase at 0.1 uM incubated for 32 hrs by PI staining based flow cytometry analysis (reference value: 8.25 %). The class given is functional. (In general: Flow cytometry measures light scatter and fluorescence of single cells or particles in a stream.)
Test [2] deals with HCC827. The test can be described thus: Induction of cell cycle arrest in human HCC827 cells assessed as accumulation in G1 phase at 0.1 uM incubated for 32 hrs by PI staining based flow cytometry analysis (reference value: 50.48 %). The test is classed as functional.
Test [3] has as its system HCC827. Description: Induction of apoptosis in human HCC827 cells assessed as late apoptotic cells at 0.1 uM incubated for 32 hrs by annexin V-FITC and PI staining based flow cytometry analysis (reference value: 14.23 %). The class given is functional.
Test [4] concerns HCC827. Description: Induction of apoptosis in human HCC827 cells assessed as viable cells at 1 uM incubated for 32 hrs by annexin V-FITC and PI staining based flow cytometry analysis (reference value: 72.15 %). The test is classed as functional. To be noted: read-out: Activity.
Test [5] has as its system HCC827. Description: Induction of apoptosis in human HCC827 cells assessed as early apoptotic cells at 1 uM incubated for 32 hrs by annexin V-FITC and PI staining based flow cytometry analysis (reference value: 2.72%). The test is classed as functional.
The next test has as its system NCI-H1975. Description: Antiproliferative activity against human NCI-H1975 cells harboring EGFR L858/T790M mutant assessed as reduction in cell viability incubated for 72 hrs by MTT assay. The test is classed as functional, cell-based. Particulars: NCI-H1975, 72 h.
The subject of another test is A-431. The test can be described thus: Antiproliferative activity against human A-431 cells harboring EGFR assessed as reduction in cell viability incubated for 72 hrs by MTT assay. The class given is functional, cell-based. To be noted: A-431, 72 h. (Tetrazolium assays rely on reduction of a dye to a coloured formazan, in cell work by metabolically active cells.)
Test [6] deals with HCC827. Description: Induction of apoptosis in human HCC827 cells assessed as late apoptotic cells at 1 uM incubated for 32 hrs by annexin V-FITC and PI staining based flow cytometry analysis (reference value: 18.02%). The test is classed as functional.
Test [7] concerns HCC827. The test can be described thus: Induction of cell cycle arrest in human HCC827 cells assessed as accumulation in S phase at 0.1 uM incubated for 32 hrs by PI staining based flow cytometry analysis (reference value: 41.26 %). The class given is functional.
Test [8] concerns HCC827. Description: Induction of apoptosis in human HCC827 cells assessed as early apoptotic cells at 0.1 uM incubated for 32 hrs by annexin V-FITC and PI staining based flow cytometry analysis (reference value: 2.31 %). The class given is functional.
A further test concerns A549. The test can be described thus: Antiproliferative activity against human A549 cells harboring EGFR assessed as reduction in cell viability incubated for 72 hrs by MTT assay. The test is classed as functional, cell-based. To be noted: A549, 72 h.
For test [9], the system named is HCC827. Description: Induction of cell cycle arrest in human HCC827 cells assessed as accumulation in G1 phase at 1 uM incubated for 32 hrs by PI staining based flow cytometry analysis (reference value: 50.48 %). The class given is functional.
For test [10], the system named is HCC827. The test can be described thus: Induction of apoptosis in human HCC827 cells assessed as necrotic cells at 1 uM incubated for 32 hrs by annexin V-FITC and PI staining based flow cytometry analysis (reference value: 7.12 %). The test is classed as functional.
In test [11] the test system is HCC827. The test can be described thus: Induction of apoptosis in human HCC827 cells assessed as viable cells at 0.1 uM incubated for 32 hrs by annexin V-FITC and PI staining based flow cytometry analysis (reference value: 76.79 %). The class given is functional. To be noted: read-out: Activity.
Test [12] has as its system HCC827. Description: Induction of apoptosis in human HCC827 cells assessed as necrotic cells at 0.1 uM incubated for 32 hrs by annexin V-FITC and PI staining based flow cytometry analysis (reference value: 6.68 %). The class given is functional.
For test [13], the system named is HCC827. The test can be described thus: Antiproliferative activity against human HCC827 cells harboring EGFRDel19 mutant assessed as reduction in cell viability incubated for 72 hrs by MTT assay. The test is classed as functional, cell-based. Particulars: HCC827, 72 h.
For test [14], the system named is HCC827. The test can be described thus: Induction of cell cycle arrest in human HCC827 cells assessed as accumulation in G2 phase at 1 uM incubated for 32 hrs by PI staining based flow cytometry analysis (reference value: 8.25 %). The test is classed as functional.
Test [15] relates to HCC827. The test can be described thus: Induction of cell cycle arrest in human HCC827 cells assessed as accumulation in S phase at 1 uM incubated for 32 hrs by PI staining based flow cytometry analysis (reference value: 41.26 %). The test is classed as functional.
Test [16] has as its target Epidermal growth factor receptor (Homo sapiens) (UniProt P00533). Description: Inhibition of EGFR in human HCC827 cells assessed as reduction in EGFR phosphorylation incubated for 36 hrs by Western blot analysis. The test is classed as cell-based. Particulars: dose 0.1-1 µM.

The source made the active and inactive calls. No cut-off for these calls is given here.

Sequence of Epidermal growth factor receptor (Homo sapiens) (P00533 whole entry): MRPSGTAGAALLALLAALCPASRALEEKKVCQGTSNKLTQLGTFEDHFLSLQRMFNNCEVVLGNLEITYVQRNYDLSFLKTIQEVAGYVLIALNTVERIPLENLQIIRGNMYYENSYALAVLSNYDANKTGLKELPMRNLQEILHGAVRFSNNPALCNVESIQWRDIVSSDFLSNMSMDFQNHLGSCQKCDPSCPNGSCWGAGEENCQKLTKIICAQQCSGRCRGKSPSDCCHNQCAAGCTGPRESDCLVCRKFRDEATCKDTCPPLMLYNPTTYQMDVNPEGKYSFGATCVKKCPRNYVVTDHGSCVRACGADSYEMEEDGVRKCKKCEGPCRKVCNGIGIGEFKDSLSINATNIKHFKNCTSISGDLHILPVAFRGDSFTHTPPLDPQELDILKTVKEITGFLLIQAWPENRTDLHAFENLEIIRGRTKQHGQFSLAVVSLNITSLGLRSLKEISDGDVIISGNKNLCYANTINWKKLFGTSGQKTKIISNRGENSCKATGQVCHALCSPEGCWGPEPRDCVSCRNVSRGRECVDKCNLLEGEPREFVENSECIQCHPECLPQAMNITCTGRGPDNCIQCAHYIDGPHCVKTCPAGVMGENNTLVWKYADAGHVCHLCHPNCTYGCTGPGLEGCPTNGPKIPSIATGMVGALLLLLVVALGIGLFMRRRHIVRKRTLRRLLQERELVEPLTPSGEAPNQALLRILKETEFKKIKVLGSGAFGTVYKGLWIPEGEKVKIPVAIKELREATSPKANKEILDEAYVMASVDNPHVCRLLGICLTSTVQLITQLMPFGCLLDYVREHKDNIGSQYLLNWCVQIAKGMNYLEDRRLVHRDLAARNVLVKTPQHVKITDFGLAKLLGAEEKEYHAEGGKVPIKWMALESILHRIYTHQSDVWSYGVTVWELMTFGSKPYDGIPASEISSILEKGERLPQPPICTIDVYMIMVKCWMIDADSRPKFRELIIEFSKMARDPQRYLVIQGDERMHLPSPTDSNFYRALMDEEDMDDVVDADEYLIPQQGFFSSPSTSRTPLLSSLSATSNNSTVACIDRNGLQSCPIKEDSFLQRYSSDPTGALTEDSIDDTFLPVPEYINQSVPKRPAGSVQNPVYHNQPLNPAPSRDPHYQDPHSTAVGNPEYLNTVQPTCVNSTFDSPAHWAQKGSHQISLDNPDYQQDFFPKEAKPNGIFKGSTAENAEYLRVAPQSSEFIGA

Take `C=CC(=O)Nc1cc(Nc2nccc(-c3cn(C)c4ccccc34)n2)c(OC)cc1N(C)CCN(C)C` [OSIMERTINIB]: the Activity in the test with HCC827 [1] came out at 8.26%; in the test with HCC827 [2], 82.45%; in the test on HCC827 [3] it was 55.86%; in the test with HCC827 [5] it was 6.11%; in the test with HCC827 [6], 59.59%; in the test on HCC827 [7], 9.29%. The Activity amounted to 5.07% with HCC827 [8]; 80.12% in the test with HCC827 [9]; 10.32% in the test with HCC827 [10]; 15.24% in the test on HCC827 [12]; 9.71% in the test on HCC827 [14]; 10.16% in the test with HCC827 [15]. Also, in the test with HCC827 [4], the viability at 1 µM is 24%. The IC50 in the test with NCI-H1975 stood at […]; in the test with A-431, […]; with A549, 900 nM; in the test on HCC827 [13], 36 nM. Moreover, the viability at 0.1 µM in the test with HCC827 [11] turned out to be 23.8%.
With `CN(C)C1CCN(c2ccc(Nc3cc4c(N5CCC(CO)CC5)nc(Nc5ccc(F)cc5)nc4cn3)nc2)CC1`, the Activity in the test with HCC827 [1] is given as 7.72%; with HCC827 [2] it was 78.84%; in the test on HCC827 [3], 43.7%; with HCC827 [5] it was 4.79%; in the test with HCC827 [6], 53.88%; in the test on HCC827 [7] it was 13.43%. Also, the Activity was found to be 8.5% with HCC827 [8]; 78.98% in the test on HCC827 [9]; 16.48% with HCC827 [10]; 8.35% with HCC827 [12]; 7.56% with HCC827 [14]; 13.43% in the test with HCC827 [15]. Moreover, the viability at 1 µM with HCC827 [4] stood at 24.9%. Moreover, the inhibition result in test [16] was “Active”. The viability at 0.1 µM in the test with HCC827 [11] was determined as 39.5%.

Usually IC50 stands for the concentration that inhibits the measured activity by half.

Source of the values: ChEMBL document CHEMBL4680163, “Discovery of potent epidermal growth factor receptor (EGFR) degraders by proteolysis targeting chimera (PROTAC)” (Eur J Med Chem, 2020).
